{
  "source": "patent US10016373B2",
  "about": "“CB2 receptor ligands for the treatment of psychiatric disorders” (priority 2013, dated 2018)",
  "key": {"[1]": {"system": "mice", "assay_type": "in vivo", "protocol": "For the treated mice, one of the two CB2 receptor-selective agonist solutions: either CB2 agonist2 solution or H-308 solution, was administered by intravenous administration to mice pups to induce ADHD-like behavior and/or obsessive-compulsive-like behavior as a murine model for ADHD and OCD. […] In order to test the effect of non-agonist or mixed-type agonist/inverse agonist CB2 receptor ligands on hyperactivity, the effects of M1 were studied.\nOpen-Field Test (Crossing and Rearing, Defecation, Grooming)\nMice were assessed for hyperactive behavior on postnatal days 16-20, 26-39, at age 13 weeks and at age 23 weeks. Mice were placed in the center of a transparent glass cage 30×40×31 cm divided into squares of 7.5×7.5 cm. The number of squares crossed and the rearing activity were evaluated for 8 min."}, "[2]": {"system": "mice", "test": "Prepulse inhibition (PPI) of the startle reflex", "assay_type": "in vivo", "protocol": "Attention Test: Prepulse Inhibition (PPI) of the Startle Reflex\nA weak audible stimulus (74-90 dB tone) “prepulse” was used to inhibit the acoustic startle response to a subsequent strong audible stimulus (120 dB tone) “pulse”. Reduced prepulse inhibition of the startle reflex (PPI) was taken as an index of the positive symptoms of deficits in attention.\nPPI was assessed similarly to the method described by Varty et al. (2001). Mice were placed in a startle chamber and allowed to acclimatize for 5 minutes A loudspeaker produced startling “pulse” at 120 dB and thereafter 65 dB background white noise or one of […] 20 ms duration “prepulses” at 74, 78, 82, 86, and 90 dB followed after 20 ms by a 40 ms startling “pulse” at 120 dB. The response of each mouse was recorded and stored by a computer. Each test session lasted for 11 minutes and consisted of 5 presentations of each of the prepulse/pulse sound stimuli (total of 30 or 35) presented in random order and separated by 15 second intervals. The magnitude of prepulse inhibition was calculated as percentage PPI=[1-(acoustic startle for prepulse+pulse)/(acoustic startle for pulse alone)]×100."}, "[3]": {"system": "mice", "test": "Impulsivity, Elevated Plus Maze", "assay_type": "in vivo", "settings": "CB2 agonist2 model mice at 13 weeks, M1 5 mg/kg i.p. 24 hours before the test", "protocol": "The treatment consisted of a single intravenous administration of the vehicle or the M1 solution Impulsivity was tested 24 hours after treatment.\nImpulsivity as measured by the paucity of time spent on the two anxiety-provoking, open arms (as opposed to the two enclosed arms) of an “Elevated Plus Maze” was used as a parameter of negative symptoms of schizophrenia (Josselyn and Vaccarino, 1998). The plus maze was elevated 50 cm above the table top. Behavior of each mouse was recorded for 5 minutes by a video camera and scored using the “EthoVision” software (Noldus), measuring the number of entries as well as the amount of time spent in each arm, open or closed. Reduced time spent in the closed arms indicated reduced anxiety. Increased time spent in the opened arms indicated increased risk behavior (hyperactive and impulsive).\nThe treatment consisted of a single i.p. administration of the vehicle or the M1 solution. The duration ratio open arm/close arm and the frequency ratio open arm/close arm in the Elevated Plus Maze were evaluated 24 hours after treatment with either vehicle or M1."}, "[4]": {"system": "mice", "test": "Vocal tics, ultrasonic voice recording", "assay_type": "in vivo", "protocol": "Mice were recorded at the age of 13 or 23-25 weeks with an ultrasonic voice recorder (Noldus). Mice were recorded at the age of 29 days with an ultrasonic voice recorder (AviSoft). Single mice were recorded in a cage for 10 min (according to sex and type of treatment). The number and duration of events at 20-40 kHz and at 50-70 kHz were analyzed. In some experiments, 24 h following M1 treatment, each mouse was recorded for 10 min before and after stress. Stress was induced by incubation for 10-15 min in a mouse restrainer."}, "[5]": {"test": "Body weight", "assay_type": "in vivo", "settings": "postnatal day 100; mice treated with 0.5 mg/kg CB2 agonist2; FIG. 16C"}, "[6]": {"biological_target": "T1, CB2 receptor (Homo sapiens, UniProt P34972)", "T1 construct": "expressed in transfected cells; host or cells: CHO cells", "T1 sequence (P34972 whole entry)": "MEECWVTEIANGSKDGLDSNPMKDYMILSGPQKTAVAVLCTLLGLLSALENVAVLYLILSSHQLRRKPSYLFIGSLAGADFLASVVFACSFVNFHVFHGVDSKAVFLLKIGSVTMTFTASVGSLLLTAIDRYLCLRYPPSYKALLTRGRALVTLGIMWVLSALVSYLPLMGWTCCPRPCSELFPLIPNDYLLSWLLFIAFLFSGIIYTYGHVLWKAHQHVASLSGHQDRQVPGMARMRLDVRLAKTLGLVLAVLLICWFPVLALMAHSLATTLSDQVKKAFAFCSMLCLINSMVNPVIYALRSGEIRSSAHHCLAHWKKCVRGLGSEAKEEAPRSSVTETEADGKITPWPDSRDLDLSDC", "settings": "cited from earlier work"}, "[7]": {"biological_target": "T1, CB2 receptor", "settings": "cited from earlier work", "remark": "listed apart in the source"}, "[8]": {"system": "osteoclastogenesis", "settings": "Schuehly et al. 2011; cited from earlier work"}, "[9]": {"system": "presenilin 2 mutant mice", "settings": "cited from earlier work"}, "[10]": {"system": "mouse model of Alzheimer's disease", "settings": "orally administered, Lee et al. 2012; cited from earlier work"}, "[11]": {"settings": "CB2 receptor, Schuehly et al. 2011"}},
  "note": "Read-outs that look alike come from different tables or passages of the source.",
  "data": [
    {"smiles": "C=CCc1ccc(O)c(-c2ccc(OC)c(CC=C)c2)c1", "note": "[M1, 2-(4-Methoxy-3-prop-2-enylphenyl)-4-prop-2-enylphenol]", "values": [
      {"measurement": "grooming", "setting": "[1]; CB2 agonist2 0.5 mg/kg at the age of 3-15 days, M1 5 mg/kg on day 29, measured on day 39, stressed female mice, FIG. 13A", "value": "reversed"},
      {"measurement": "feces secretion", "setting": "[1]; CB2 agonist2 0.5 mg/kg at the age of 3-15 days, M1 5 mg/kg on day 29, measured on day 39, stressed female mice, FIG. 13B", "value": "reversed"},
      {"measurement": "rearing", "setting": "[1]; CB2 agonist2 0.5 mg/kg at the age of 3-15 days, M1 on day 29, measured on day 36, unstressed female mice, FIG. 12A", "value": "reversed"},
      {"measurement": "ambulation", "setting": "[1]; CB2 agonist2 0.5 mg/kg at the age of 3-15 days, M1 on day 29, measured on day 39, stressed female mice, FIG. 12B", "value": "reversed"},
      {"measurement": "ambulation", "setting": "[1]; CB2 agonist2 0.5 mg/kg model, M1 injected on day 29, measured the same day, stressed females, FIG. 11B", "value": "reversed"},
      {"measurement": "rearing", "setting": "[1]; CB2 agonist2 0.5 mg/kg model, M1 injected on day 29, measured the same day, stressed females, FIG. 11D", "value": "reversed"},
      {"measurement": "hyperactivity", "setting": "[1]; age of 3 months, 0.1 mg/kg HU-308, M1 5 mg/kg in gavage 30 minutes before the experiment, FIGS. 17A-B", "value": "reversed"},
      {"measurement": "oral availability", "setting": "[1]; inferred from efficacy of M1 5 mg/kg given in gavage", "value": "orally available"},
      {"measurement": "ambulation", "setting": "[1]; model mice 5 mg/kg CB2 agonist2 postnatal days 1-5, M1 5 mg/kg single i.p. at 13 weeks, 30 minutes after treatment, FIG. 5A", "value": "reversed"},
      {"measurement": "rearing", "setting": "[1]; model mice 5 mg/kg CB2 agonist2 postnatal days 1-5, M1 5 mg/kg single i.p. at 13 weeks, 30 minutes after treatment, FIG. 5B", "value": "reversed"},
      {"measurement": "secretion of feces", "setting": "[1]; model mice 5 mg/kg CB2 agonist2 postnatal days 5-13, M1 5 mg/kg single i.p. at 23 weeks, FIG. 4C", "value": "reversed"},
      {"measurement": "grooming duration", "setting": "[1]; model mice 5 mg/kg CB2 agonist2 postnatal days 5-13, M1 5 mg/kg single i.p. at 23 weeks, tested 48 hours after treatment, FIG. 4A", "value": "reversed"},
      {"measurement": "grooming frequency", "setting": "[1]; model mice 5 mg/kg CB2 agonist2 postnatal days 5-13, M1 5 mg/kg single i.p. at 23 weeks, tested 48 hours after treatment, FIG. 4B", "value": "reversed"},
      {"measurement": "response to pre-pulse tone", "setting": "[2]; mice treated with 0.5 mg/kg CB2 agonist2, FIG. 15B", "value": "reversed"},
      {"measurement": "response to the startle tone of 120 dB", "setting": "[2]; postnatal day 100, 0.5 mg/kg CB2 agonist2 mice, at the beginning of the experiment, FIG. 16A", "value": "no effect"},
      {"measurement": "response to 120 dB", "setting": "[2]; postnatal day 100, 0.5 mg/kg CB2 agonist2 mice, re-evaluated at the end of the experiment, FIG. 16B", "value": "reversed"},
      {"measurement": "% PPI (pre-pulse inhibition)", "setting": "[2]; postnatal day 100, mice treated with 0.5 mg/kg CB2 agonist2, FIG. 15A", "value": "reversed"},
      {"measurement": "impulsive/hyperactive behavior", "setting": "[3]", "value": "reversed"},
      {"measurement": "number of vocal events", "setting": "[4]; 20-40 KHz, day 29, female mice, CB2 agonist2 0.5 mg/kg at the age of 3-15 days, M1 5 mg/kg on day 29, FIG. 14A", "value": "reversed"},
      {"measurement": "duration of vocals", "setting": "[4]; 20-40 KHz, day 29, female mice, CB2 agonist2 0.5 mg/kg at the age of 3-15 days, M1 5 mg/kg on day 29, FIG. 14B", "value": "reversed"},
      {"measurement": "number of vocal events", "setting": "[4]; female mice 23-25 weeks, 20-40 KHz, stress, CB2 agonist2 5 mg/kg postnatal days 5-13, M1 given to model mice, FIG. 7A", "value": "reversed"},
      {"measurement": "total duration of vocal events", "setting": "[4]; female mice 23-25 weeks, 20-40 KHz, stress, CB2 agonist2 5 mg/kg postnatal days 5-13, M1 given to model mice, FIG. 7B", "value": "reversed"},
      {"measurement": "mean duration of vocal events", "setting": "[4]; female mice 23-25 weeks, 20-40 KHz, stress, CB2 agonist2 5 mg/kg postnatal days 5-13, M1 given to model mice, FIG. 7C", "value": "reversed"},
      {"measurement": "number of vocal events", "setting": "[4]; female mice 23-25 weeks, 50-70 KHz, stress, CB2 agonist2 5 mg/kg postnatal days 5-13, M1 given to model mice, FIG. 8A", "value": "reversed"},
      {"measurement": "total duration of vocal events", "setting": "[4]; female mice 23-25 weeks, 50-70 KHz, stress, CB2 agonist2 5 mg/kg postnatal days 5-13, M1 given to model mice, FIG. 8B", "value": "reversed"},
      {"measurement": "mean duration of vocal events", "setting": "[4]; female mice 23-25 weeks, 50-70 KHz, stress, CB2 agonist2 5 mg/kg postnatal days 5-13, M1 given to model mice, FIG. 8C", "value": "reversed"},
      {"measurement": "total duration of vocal events", "setting": "[4]; male mice 23-25 weeks, 20-40 KHz, before stress, CB2 agonist2 5 mg/kg postnatal days 5-13, M1 given to model mice, FIG. 9A", "value": "reversed"},
      {"measurement": "mean duration of vocal events", "setting": "[4]; male mice 23-25 weeks, 20-40 KHz, before stress, CB2 agonist2 5 mg/kg postnatal days 5-13, M1 given to model mice, FIG. 9B", "value": "reversed"},
      {"measurement": "total duration of vocal events", "setting": "[4]; male mice 23-25 weeks, 50-70 KHz, before stress, CB2 agonist2 5 mg/kg postnatal days 5-13, M1 given to model mice, FIG. 10A", "value": "reversed"},
      {"measurement": "mean duration of vocal events", "setting": "[4]; male mice 23-25 weeks, 50-70 KHz, before stress, CB2 agonist2 5 mg/kg postnatal days 5-13, M1 given to model mice, FIG. 10B", "value": "reversed"},
      {"measurement": "body weight", "setting": "[5]", "value": "no effect"},
      {"measurement": "activity via cAMP pathway", "setting": "[6]; [11]", "value": "inverse agonism"},
      {"measurement": "cAMP production", "setting": "[6]; known dual effects of M1", "value": "increasing"},
      {"measurement": "activity via Ca2+ pathway", "setting": "[7]; [11]", "value": "partial agonism"},
      {"measurement": "intracellular Ca2+ concentration", "setting": "[7]; known dual effects of M1", "value": "increasing"},
      {"measurement": "osteoclastogenesis", "setting": "[8]", "value": "potently inhibits"},
      {"measurement": "memory impairment", "setting": "[9]", "value": "attenuates"},
      {"measurement": "amyloidogenesis and progression of AD", "setting": "[10]", "value": "prevent"}
    ]}
  ]
}
